Source: patent US9067963B2, “N-alkyl 2-(disubstituted)alkynyladenosine-5-uronamides as A2A agonists” (Lewis and Clark Pharmaceuticals, Inc., priority 2012, dated 2015)

target: A2A adenosine receptors (Homo sapiens, UniProt P29274); experiment: A2A Ki binding (methodology of Murphree et al., Mol Pharmacol 2002, 61, 455-62)
From the text: The Ki values were obtained using the methodology described by Murphree et al. in Mol Pharmacol 2002, 61, 455-62.

Sequence of A2A adenosine receptors (P29274 whole entry): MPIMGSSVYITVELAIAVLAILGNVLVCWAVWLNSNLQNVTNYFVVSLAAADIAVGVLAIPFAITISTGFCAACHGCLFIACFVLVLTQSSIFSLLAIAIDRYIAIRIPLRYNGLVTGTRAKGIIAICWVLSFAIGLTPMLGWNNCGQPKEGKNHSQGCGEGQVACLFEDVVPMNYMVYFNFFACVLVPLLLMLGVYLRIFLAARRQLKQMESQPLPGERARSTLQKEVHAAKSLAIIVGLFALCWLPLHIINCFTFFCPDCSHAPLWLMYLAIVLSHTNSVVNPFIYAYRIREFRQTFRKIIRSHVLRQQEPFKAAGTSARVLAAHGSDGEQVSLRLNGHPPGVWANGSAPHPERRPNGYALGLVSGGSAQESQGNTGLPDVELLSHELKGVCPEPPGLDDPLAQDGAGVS

| SMILES | Ki |
| --- | --- |
| CCNC(=O)[C@H]1O[C@@H](n2cnc3c(N)nc(C#CCN(Cc4ccc(OC)cc4)C(=O)C4CC4)nc32)C(O)[C@@H]1O (stereo partly drawn) [Example 36] | 1 to 50 nM |
| CNC(=O)[C@H]1O[C@@H](n2cnc3c(N)nc(C#CCN(C(=O)c4ccc(Cl)nc4)C4CC4)nc32)C(O)[C@@H]1O (stereo partly drawn) [Example 22] | < 1 nM |
| COc1ccc(CN(CC#Cc2nc(N)c3ncn([C@@H]4O[C@H](C(=O)NC5CC5)[C@@H](O)C4O)c3n2)C(=O)C2CC2)cc1 (stereo partly drawn) [Example 18] | < 1 nM |
| CNC(=O)[C@H]1O[C@@H](n2cnc3c(N)nc(C#CCN(C(=O)c4cccc(F)c4)C4CCC4)nc32)C(O)[C@@H]1O (stereo partly drawn) [Example 20] | < 1 nM |
| CN(CC#Cc1nc(N)c2ncn([C@@H]3O[C@H](C(=O)NC4CC4)[C@@H](O)C3O)c2n1)C(=O)c1ccc(C(F)(F)F)nc1 (stereo partly drawn) [Example 2, N-Cyclopropyl 2-(3-{N-methyl-1-[6-(trifluoromethyl)pyridin-3-yl]formamido}prop-1-yn-1-yl)adenosine-5′-uronamide] | < 1 nM |
| CCNC(=O)[C@H]1O[C@@H](n2cnc3c(N)nc(C#CCN(C)C(=O)c4ccc(F)nc4)nc32)C(O)[C@@H]1O (stereo partly drawn) [Example 35] | < 1 nM |
| CN(CC#Cc1nc(N)c2ncn([C@@H]3O[C@H](C(=O)NC4CC4)[C@@H](O)C3O)c2n1)C(=O)c1ccc(F)nc1 (stereo partly drawn) [Example 7, N-Cyclopropyl 2-{3-[N-methyl-1-(6-fluoropyridin-3-yl)formamido]prop-1-yn-1-yl}adenosine-5′-uronamide] | 1 to 50 nM |
| CCNC(=O)[C@H]1O[C@@H](n2cnc3c(N)nc(C#CCN(C)C(=O)c4ccc(C(F)(F)F)nc4)nc32)C(O)[C@@H]1O (stereo partly drawn) [Example 28] | < 1 nM |
| CNC(=O)[C@H]1O[C@@H](n2cnc3c(N)nc(C#CCN(Cc4ccc(OC)cc4)C(=O)C4CC4)nc32)C(O)[C@@H]1O (stereo partly drawn) [Example 17] | 1 to 50 nM |
| CNC(=O)[C@H]1O[C@@H](n2cnc3c(N)nc(C#CCN(CCOC)C(=O)c4ccc(F)nc4)nc32)C(O)[C@@H]1O (stereo partly drawn) [Example 11, N-Methyl 2-{3-[6-fluoro-N-(2-methoxyethyl)nicotinamido]propyn-1-yl}adenosine-5′-uronamide] | < 1 nM |
| CCNC(=O)[C@H]1O[C@@H](n2cnc3c(N)nc(C#CCN(C(=O)Cc4ccccc4)C4CC4)nc32)C(O)[C@@H]1O (stereo partly drawn) [Example 27] | 1 to 50 nM |
| CNC(=O)[C@H]1O[C@@H](n2cnc3c(N)nc(C#CCN(CCOC)C(=O)c4cccs4)nc32)C(O)[C@@H]1O (stereo partly drawn) [Example 12, N-Methyl 2-{3-[N-(2-methoxyethyl)thiophene-2-carboxamido]propyn-1-yl}adenosine-5′-uronamide] | < 1 nM |
| Nc1nc(C#CCN(C(=O)Cc2ccccc2)C2CC2)nc2c1ncn2[C@@H]1O[C@H](C(=O)NC2CC2)[C@@H](O)C1O (stereo partly drawn) [Example 16] | 1 to 50 nM |
| CNC(=O)[C@H]1O[C@@H](n2cnc3c(N)nc(C#CCN(C(=O)c4ccc(OC)c(F)c4)C4CCC4)nc32)C(O)[C@@H]1O (stereo partly drawn) [Example 21] | < 1 nM |
| CNC(=O)[C@H]1O[C@@H](n2cnc3c(N)nc(C#CCN(C(=O)c4ccc(Cl)cc4)C4CCC4)nc32)C(O)[C@@H]1O (stereo partly drawn) [Example 30] | < 1 nM |
| CCNC(=O)[C@H]1O[C@@H](n2cnc3c(N)nc(C#CCN(C(=O)c4ccc(Cl)nc4)C4CC4)nc32)C(O)[C@@H]1O (stereo partly drawn) [Example 26] | < 1 nM |
| CNC(=O)[C@H]1O[C@@H](n2cnc3c(N)nc(C#CCN(C(=O)c4ccc(F)cc4)C4CCC4)nc32)C(O)[C@@H]1O (stereo partly drawn) [Example 19] | < 1 nM |
| CNC(=O)[C@H]1O[C@@H](n2cnc3c(N)nc(C#CCN(C)C(=O)c4ccc(OC)c(F)c4)nc32)C(O)[C@@H]1O (stereo partly drawn) [Example 29] | < 1 nM |
| CNC(=O)[C@H]1O[C@@H](n2cnc3c(N)nc(C#CCN(C)C(=O)c4ccc(F)nc4)nc32)C(O)[C@@H]1O (stereo partly drawn) [Example 6, N-Methyl 2-{3-[N-methyl-1-(6-fluoropyridin-3-yl)formamido]prop-1-yn-1-yl}adenosine-5′-uronamide] | < 1 nM |
| CNC(=O)[C@H]1O[C@@H](n2cnc3c(N)nc(C#CCN(C)C(=O)c4ccc(C(F)(F)F)nc4)nc32)C(O)[C@@H]1O (stereo partly drawn) [Example 1, N-Methyl 2-(3-{N-methyl-1-[6-(trifluoromethyl)pyridin-3-yl]formamido}prop-1-yn-1-yl)adenosine-5′-uronamide] | < 1 nM |
| Nc1nc(C#CCN(C(=O)c2ccc(Cl)nc2)C2CC2)nc2c1ncn2[C@@H]1O[C@H](C(=O)NC2CC2)[C@@H](O)C1O (stereo partly drawn) [Example 24] | < 1 nM |

The next lines start with the values.

| Ki | SMILES |
| --- | --- |
| < 1 nM | CNC(=O)[C@H]1O[C@@H](n2cnc3c(N)nc(C#CCN(C(=O)c4ccccc4)C4CCC4)nc32)C(O)[C@@H]1O (stereo partly drawn) [Example 8, N-Methyl 2-{3-[N-(cyclobutyl)benzamido]propyn-1-yl}adenosine-5′-uronamide] |
| < 1 nM | Nc1nc(C#CCN(CC2CC2)C(=O)c2ccccc2)nc2c1ncn2[C@@H]1O[C@H](C(=O)NC2CC2)[C@@H](O)C1O (stereo partly drawn) [Example 3, N-Cyclopropyl 2-{3-[N-(cyclopropylmethyl)benzamido]propyn-1-yl}adenosine-5′-uronamide] |
| < 1 nM | CNC(=O)[C@H]1O[C@@H](n2cnc3c(N)nc(C#CCN(C)C(=O)c4ccc(F)cc4)nc32)C(O)[C@@H]1O (stereo partly drawn) [Example 15, N-Methyl 2-{3-[4-fluoro-N-methylbenzamido]propyn-1-yl}adenosine-5′-uronamide] |
| < 1 nM | CNC(=O)[C@H]1O[C@@H](n2cnc3c(N)nc(C#CCN(CC(C)C)C(=O)c4ccccc4)nc32)C(O)[C@@H]1O (stereo partly drawn) [Example 32] |
| < 1 nM | Nc1nc(C#CCN(C(=O)c2ccccc2)C2CCC2)nc2c1ncn2[C@@H]1O[C@H](C(=O)NC2CC2)[C@@H](O)C1O (stereo partly drawn) [Example 4, N-Cyclopropyl 2-{3-[N-(cyclobutyl)benzamido]propyn-1-yl}adenosine-5′-uronamide] |
| < 1 nM | CNC(=O)[C@H]1O[C@@H](n2cnc3c(N)nc(C#CCN(C(=O)c4ccccc4)C4CCCC4)nc32)C(O)[C@@H]1O (stereo partly drawn) [Example 31] |
| 1 to 50 nM | CNC(=O)[C@H]1O[C@@H](n2cnc3c(N)nc(C#CCN(C)C(=O)c4cccnc4)nc32)C(O)[C@@H]1O (stereo partly drawn) [Example 9, N-Methyl 2-{3-[N-methylnicotinamido]propyn-1-yl}adenosine-5′-uronamide] |
| < 1 nM | CNC(=O)[C@H]1O[C@@H](n2cnc3c(N)nc(C#CCN(C)C(=O)c4ccccc4)nc32)C(O)[C@@H]1O (stereo partly drawn) [Example 13, N-Methyl 2-{3-[N-methylbenzamido]propyn-1-yl}adenosine-5′-uronamide] |
| < 1 nM | CNC(=O)[C@H]1O[C@@H](n2cnc3c(N)nc(C#CCN(CCOC)C(=O)c4ccccc4)nc32)C(O)[C@@H]1O (stereo partly drawn) [Example 14, N-Methyl 2-{3-[N-(2-methoxyethyl)benzamido]propyn-1-yl}adenosine-5′-uronamide] |
| > 50 nM | CNC(=O)[C@H]1O[C@@H](n2cnc3c(N)nc(C#CCN(C(=O)c4ccccc4)C4CC4)nc32)C(O)[C@@H]1O (stereo partly drawn) [Example 23] |
| < 1 nM | CNC(=O)[C@H]1O[C@@H](n2cnc3c(N)nc(C#CCN(C)C(=O)c4ccc(C#N)cc4)nc32)C(O)[C@@H]1O (stereo partly drawn) [Example 33] |
| 1 to 50 nM | CNC(=O)[C@H]1O[C@@H](n2cnc3c(N)nc(C#CCN(Cc4cccs4)C(=O)c4ccccc4)nc32)C(O)[C@@H]1O (stereo partly drawn) [Example 34] |
| 1 to 50 nM | CNC(=O)[C@H]1O[C@@H](n2cnc3c(N)nc(C#CCN(C)C(=O)c4ccncc4)nc32)C(O)[C@@H]1O (stereo partly drawn) [Example 10, N-Methyl 2-{3-[N-methylisonicotinamido]propyn-1-yl}adenosine-5′-uronamide] |
| 1 to 50 nM | Nc1nc(C#CCNC(=O)c2ccccc2)nc2c1ncn2[C@@H]1O[C@H](C(=O)NC2CC2)[C@@H](O)C1O (stereo partly drawn) [Example 5, N-Cyclopropyl 2-{3-[benzamido]propyn-1-yl}adenosine-5′-uronamide] |
| < 1 nM | Nc1nc(C#CCN(C(=O)c2ccccc2)C2CC2)nc2c1ncn2[C@@H]1O[C@H](C(=O)NC2CC2)[C@@H](O)C1O (stereo partly drawn) [Example 25] |
